From PMC10114980, “Triple targeting of mutant EGFR^L858R/T790M, COX-2, and 15-LOX: design and synthesis of novel quinazolinone tethered phenyl urea derivatives for anti-inflammatory and anticancer evaluation” (Journal of Enzyme Inhibition and Medicinal Chemistry, 2023)

What was measured:
ovine COX-1 = molecular target: T1, ovine COX-1 (Ovis aries, UniProt P05979); test: In vitro COX-1 inhibition assay kit (Cayman); assay type: biochemical; settings: mean ± SEM, n = 3 replicates
T1 sequence (P05979 25-600): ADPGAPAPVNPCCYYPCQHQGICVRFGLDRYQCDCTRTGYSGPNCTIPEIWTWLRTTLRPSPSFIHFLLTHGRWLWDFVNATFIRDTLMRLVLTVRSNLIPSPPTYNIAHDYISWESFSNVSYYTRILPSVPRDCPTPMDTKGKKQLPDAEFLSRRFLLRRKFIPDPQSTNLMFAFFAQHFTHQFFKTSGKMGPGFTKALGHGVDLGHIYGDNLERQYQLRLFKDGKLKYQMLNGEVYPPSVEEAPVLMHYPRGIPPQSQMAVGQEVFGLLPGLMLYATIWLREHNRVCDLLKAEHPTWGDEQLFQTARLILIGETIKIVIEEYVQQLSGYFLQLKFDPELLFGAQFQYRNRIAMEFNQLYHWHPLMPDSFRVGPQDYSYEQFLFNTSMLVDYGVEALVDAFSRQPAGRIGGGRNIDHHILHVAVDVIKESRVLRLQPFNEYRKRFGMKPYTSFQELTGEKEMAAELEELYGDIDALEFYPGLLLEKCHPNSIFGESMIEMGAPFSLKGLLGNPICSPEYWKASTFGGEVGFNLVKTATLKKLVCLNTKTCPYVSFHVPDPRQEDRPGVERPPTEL
Procedure: (§3) The half-maximal inhibitory concentration (IC50, μM) was determined, and the COX-2 selectivity index (SI) was calculated as IC50 (COX-1)/IC50 (COX-2).

human recombinant COX-2 = molecular target: T2, human recombinant COX-2 (Homo sapiens, UniProt P35354); test: In vitro COX-2 inhibition assay kit (Cayman); assay type: biochemical; settings: for COX-2 SI: Selectivity index = COX-1 IC50/COX-2 IC50; for IC50: human recombinant COX-2, mean ± SEM, n = 3 replicates
T2 sequence (P35354 18-604): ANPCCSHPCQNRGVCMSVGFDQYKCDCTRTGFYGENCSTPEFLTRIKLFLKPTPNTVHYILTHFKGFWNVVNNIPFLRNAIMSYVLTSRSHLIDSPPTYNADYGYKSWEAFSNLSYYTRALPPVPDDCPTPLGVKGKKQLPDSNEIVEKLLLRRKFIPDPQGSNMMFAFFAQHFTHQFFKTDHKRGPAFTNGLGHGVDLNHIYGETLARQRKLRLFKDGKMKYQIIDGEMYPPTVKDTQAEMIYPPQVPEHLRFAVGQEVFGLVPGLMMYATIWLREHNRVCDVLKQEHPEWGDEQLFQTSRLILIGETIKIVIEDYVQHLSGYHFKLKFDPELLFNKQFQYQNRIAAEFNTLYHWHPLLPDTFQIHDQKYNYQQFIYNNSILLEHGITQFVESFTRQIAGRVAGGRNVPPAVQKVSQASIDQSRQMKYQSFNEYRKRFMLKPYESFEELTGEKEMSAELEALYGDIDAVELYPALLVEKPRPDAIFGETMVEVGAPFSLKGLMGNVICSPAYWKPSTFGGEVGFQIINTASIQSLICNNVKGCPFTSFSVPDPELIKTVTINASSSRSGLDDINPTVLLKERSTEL
Procedure: as §3

wild-type EGFR = molecular target: T3, wild-type EGFR (Homo sapiens, UniProt P00533); test: In vitro EGFR inhibition assay, wild type; assay type: biochemical; settings: read-out: EGFR^WT IC50
T3 construct: purchased AssayQuant Technologies, Inc. (Marlboro, MA, USA)
T3 sequence (P00533 25-1210): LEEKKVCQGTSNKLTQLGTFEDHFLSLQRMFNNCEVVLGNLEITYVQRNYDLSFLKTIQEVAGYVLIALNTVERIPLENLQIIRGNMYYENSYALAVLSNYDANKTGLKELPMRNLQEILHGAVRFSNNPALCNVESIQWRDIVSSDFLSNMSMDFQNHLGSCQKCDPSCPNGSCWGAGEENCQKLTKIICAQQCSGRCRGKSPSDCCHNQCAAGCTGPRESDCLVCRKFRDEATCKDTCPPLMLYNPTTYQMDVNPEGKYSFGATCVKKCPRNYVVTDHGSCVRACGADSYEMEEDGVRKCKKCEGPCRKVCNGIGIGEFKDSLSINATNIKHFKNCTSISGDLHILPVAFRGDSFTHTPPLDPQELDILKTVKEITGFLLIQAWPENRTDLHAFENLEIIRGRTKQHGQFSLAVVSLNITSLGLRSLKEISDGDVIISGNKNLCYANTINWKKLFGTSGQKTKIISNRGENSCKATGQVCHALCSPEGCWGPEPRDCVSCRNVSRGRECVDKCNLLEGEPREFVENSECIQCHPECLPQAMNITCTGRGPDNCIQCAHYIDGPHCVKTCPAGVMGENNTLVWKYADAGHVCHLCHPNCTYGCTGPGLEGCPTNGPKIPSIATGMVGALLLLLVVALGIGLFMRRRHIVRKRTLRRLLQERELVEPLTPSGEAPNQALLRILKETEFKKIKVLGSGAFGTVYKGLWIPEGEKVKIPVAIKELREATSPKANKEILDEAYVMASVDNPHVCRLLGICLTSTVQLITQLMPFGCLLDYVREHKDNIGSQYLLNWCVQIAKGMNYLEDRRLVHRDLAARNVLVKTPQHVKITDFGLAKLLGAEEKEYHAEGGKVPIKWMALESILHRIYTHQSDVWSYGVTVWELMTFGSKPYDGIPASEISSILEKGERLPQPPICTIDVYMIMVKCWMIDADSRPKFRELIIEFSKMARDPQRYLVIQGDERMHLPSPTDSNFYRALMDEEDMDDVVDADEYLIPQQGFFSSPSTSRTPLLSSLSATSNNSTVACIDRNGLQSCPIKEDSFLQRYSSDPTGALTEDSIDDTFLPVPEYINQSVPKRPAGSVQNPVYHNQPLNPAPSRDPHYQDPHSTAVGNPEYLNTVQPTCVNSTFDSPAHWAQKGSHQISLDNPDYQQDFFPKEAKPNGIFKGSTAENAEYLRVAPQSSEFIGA

CCRF-CEM = test: NCI single dose screen, CCRF-CEM; assay type: cell-based; settings: Homo sapiens, leukaemia, single dose 10^−5 M, read-out: growth inhibition percentage
Procedure: (§1) Screening of the anticancer activity of the newly synthesised compounds (6a, 6c, 6d, 6e, 6j, 6l, 6m, 6n, 6o, and 6p) was performed by the US National Cancer Institute (NCI) using 60 different human tumour cell lines in accordance with standard procedures formerly reported.
(§2) In vitro anticancer screening was carried out for the selected compounds at a single dose (10^−5 M) against 60 different human tumour cell lines of nine different cancer cell types: leukaemia, lung, colon, CNS, melanoma, ovarian, renal, prostate, and breast cancers.

SR = test: NCI single dose screen, SR; assay type: cell-based; settings: Homo sapiens, leukaemia, single dose 10^−5 M, read-out: growth inhibition percentage
Procedure: as §1, §2

EKVX = test: NCI single dose screen, EKVX; assay type: cell-based; settings: Homo sapiens, non-small cell lung cancer, single dose 10^−5 M, read-out: growth inhibition percentage
Procedure: as §1, §2

HOP-92 = test: NCI single dose screen, HOP-92; assay type: cell-based; settings: Homo sapiens; HOP-92, non-small cell lung cancer; single dose 10^−5 M; read-out: growth inhibition percentage
Procedure: as §1, §2

NCI-H23 = test: NCI single dose screen, NCI-H23; assay type: cell-based; settings: Homo sapiens; NCI-H23, non-small cell lung cancer; single dose 10^−5 M; read-out: growth inhibition percentage
Procedure: as §1, §2

NCI-H322M = test: NCI single dose screen, NCI-H322M; assay type: cell-based; settings: Homo sapiens, non-small cell lung cancer, single dose 10^−5 M, read-out: growth inhibition percentage
Procedure: as §1, §2

NCI-H522 = test: NCI single dose screen, NCI-H522; assay type: cell-based; settings: Homo sapiens; NCI-H522, non-small cell lung cancer; single dose 10^−5 M; read-out: growth inhibition percentage
Procedure: as §1, §2

HCT-15 = test: NCI single dose screen, HCT-15; assay type: cell-based; settings: Homo sapiens; HCT-15, colon cancer; single dose 10^−5 M; read-out: growth inhibition percentage
Procedure: as §1, §2

HT29 = test: NCI single dose screen, HT29; assay type: cell-based; settings: Homo sapiens, HT-29; HT29, colon cancer; single dose 10^−5 M; read-out: growth inhibition percentage
Procedure: as §1, §2

SF-539 = test: NCI single dose screen, SF-539; assay type: cell-based; settings: Homo sapiens, read-out: growth inhibition percentage
Procedure: as §1, §2

SNB-75 = test: NCI single dose screen, SNB-75; assay type: cell-based; settings: Homo sapiens; SNB-75, CNS cancer; single dose 10^−5 M; read-out: growth inhibition percentage
Procedure: as §1, §2

SK-MEL-2 = test: NCI single dose screen, SK-MEL-2; assay type: cell-based; settings: Homo sapiens; SK-MEL-2, melanoma; single dose 10^−5 M; read-out: growth inhibition percentage
Procedure: as §1, §2

ACHN = test: NCI single dose screen, ACHN; assay type: cell-based; settings: Homo sapiens, renal cancer, single dose 10^−5 M, read-out: growth inhibition percentage
Procedure: as §1, §2

CAKI-1 = test: NCI single dose screen, CAKI-1; assay type: cell-based; settings: Homo sapiens; CAKI-1, renal cancer; single dose 10^−5 M; read-out: growth inhibition percentage
Procedure: as §1, §2

RXF 393 = test: NCI single dose screen, RXF 393; assay type: cell-based; settings: Homo sapiens; RXF 393, renal cancer; single dose 10^−5 M; read-out: growth inhibition percentage
Procedure: as §1, §2

TK-10 = test: NCI single dose screen, TK-10; assay type: cell-based; settings: Homo sapiens; TK-10, renal cancer; single dose 10^−5 M; read-out: growth inhibition percentage
Procedure: as §1, §2

BT-549 = test: NCI single dose screen, BT-549; assay type: cell-based; settings: Homo sapiens; BT-549, breast cancer; single dose 10^−5 M; read-out: growth inhibition percentage
Procedure: as §1, §2

Row | Structure (SMILES) | IC50 (human recombinant COX-2) [µM] | IC50 (wild-type EGFR) [µM] | inhibition at 10 µM (CCRF-CEM) [%] | inhibition at 10 µM (SR) [%] | inhibition at 10 µM (EKVX) [%] | inhibition at 10 µM (HOP-92) [%] | inhibition at 10 µM (NCI-H23) [%] | inhibition at 10 µM (NCI-H322M) [%] | inhibition at 10 µM (NCI-H522) [%] | inhibition at 10 µM (HCT-15) [%] | inhibition at 10 µM (HT29) [%] | inhibition at 10 µM (SF-539) [%] | inhibition at 10 µM (SNB-75) [%] | inhibition at 10 µM (SK-MEL-2) [%] | inhibition at 10 µM (ACHN) [%] | inhibition at 10 µM (CAKI-1) [%] | inhibition at 10 µM (RXF 393) [%] | inhibition at 10 µM (TK-10) [%] | inhibition at 10 µM (BT-549) [%] | melting point [°C] | other results
1 | COc1ccc(NC(=O)NN2C(=O)c3ccccc3N(C)C2c2ccc(OC)cc2)cc1 (stereo not shown) [Compound 6j, 1-(4-Methoxyphenyl)-3-(2-(4-methoxyphenyl)-1-methyl-4-oxo-1,4-dihydroquinazolin-3(2H)-yl)urea] | 5.04 ± 1.56 | > 100 | < 10 | 11.6 | < 10 | < 10 | < 10 | < 10 | < 10 | < 10 | < 10 | < 10 | < 10 | < 10 | < 10 | < 10 | < 10 | < 10 | 70.1 | 205 to 207 | IC50 (ovine COX-1): 26.9 ± 3.03 µM; COX-2 SI (human recombinant COX-2): 5.34
2 | CN1c2ccccc2C(=O)N(NC(=O)Nc2ccccc2)C1c1ccccc1 (stereo not shown) [Compound 6c, 1-(1-Methyl-4-oxo-2-phenyl-1,4-dihydroquinazolin-3(2H)-yl)-3-phenylurea] | 3.41 ± 1.83 | > 100 | < 10 | < 10 | < 10 | < 10 | < 10 | < 10 | < 10 | < 10 | < 10 | < 10 | < 10 | < 10 | < 10 | < 10 | < 10 | < 10 | < 10 | 180 to 181 | IC50 (ovine COX-1): 1 ± 1.78 µM; COX-2 SI (human recombinant COX-2): 0.29
3 | CN1c2ccccc2C(=O)N(NC(=O)Nc2ccc(F)cc2)C1c1ccccc1 (stereo not shown) [Compound 6m, 1-(4-Fluorophenyl)-3-(1-methyl-4-oxo-2-phenyl-1,4-dihydroquinazolin-3(2H)-yl)urea] | 3.16 ± 1.22 | > 100 | < 10 | < 10 | 10.5 | < 10 | < 10 | < 10 | < 10 | 14.3 | < 10 | < 10 | < 10 | < 10 | < 10 | < 10 | < 10 | < 10 | < 10 | 220 to 222 | IC50 (ovine COX-1): 12.4 ± 2.74 µM; COX-2 SI (human recombinant COX-2): 3.93
4 | CC1N(NC(=O)Nc2ccc(F)cc2)C(=O)c2ccccc2N1C (stereo not shown) [Compound 6l, 1–(1,2-Dimethyl-4-oxo-1,4-dihydroquinazolin-3(2H)-yl)-3-(4-fluorophenyl)urea] | 1.49 ± 1.11 | > 100 | < 10 | < 10 | < 10 | < 10 | < 10 | < 10 | < 10 | < 10 | < 10 | < 10 | < 10 | < 10 | < 10 | < 10 | < 10 | 15.4 | < 10 | 187 to 190 | COX-2 SI (human recombinant COX-2): 0.05
5 | CN1c2ccccc2C(=O)N(NC(=O)Nc2ccc(F)cc2)C1c1ccc([N+](=O)[O-])cc1 (stereo not shown) [Compound 6o, 1-(4-Fluorophenyl)-3–(1-methyl-2-(4-nitrophenyl)-4-oxo-1,4-dihydroquinazolin-3(2H)-yl)urea] | 10.1 ± 1.01 | 52.4 ± 1.25 | < 10 | 12.2 | 19.8 | < 10 | < 10 | < 10 | < 10 | 10.7 | < 10 | < 10 | < 10 | < 10 | < 10 | 18.4 | < 10 | < 10 | < 10 | 250 to 252 | IC50 (ovine COX-1): > 100 µM
6 | COc1ccc(C2N(NC(=O)Nc3ccc(F)cc3)C(=O)c3ccccc3N2C)cc1 (stereo not shown) [Compound 6p, 1-(4-Fluorophenyl)-3-(2–(4-methoxyphenyl)-1-methyl-4-oxo-1,4-dihydroquinazolin-3(2H)-yl)urea] | 9.28 ± 1.04 | > 100 | < 10 | < 10 | < 10 | < 10 | < 10 | < 10 | < 10 | < 10 | < 10 | < 10 | < 10 | < 10 | < 10 | < 10 | < 10 | < 10 | < 10 | 224 to 226 | IC50 (ovine COX-1): 88.5 ± 3.01 µM; COX-2 SI (human recombinant COX-2): 9.54
